In publication PMC12316928, “Synthesis and evaluation of novel thiohydantoin derivatives for antidiabetic activity using in silico in vitro and in vivo methods” (Scientific Reports, 2025):
≈ marks a conversion by molar mass, not a printed value. Where “and” joins values, the source holds several entries; their conditions need not be identical. Identical values can stand only once. Entries after “also recorded” stand apart in the source; their conditions may differ.

Key:
[1] = DPPH free radical scavenging assay
Method: The antioxidant activity of synthesized compounds was evaluated using the DPPH free-radical scavenging assay, following the methodology outlined by[34]. This assay is based on the principle that the stable free radical DPPH undergoes a color change from deep purple to yellow upon reduction, indicating hydrogen donation from antioxidant compounds. Different concentrations (3.12, 6.25, 12.5, 25, 50, 100, and 200 µg/mL) of test compounds were prepared in methanol. A 200 µL aliquot of each concentration was mixed with 50 µL of freshly prepared DPPH solution (0.659 mM). The reaction mixtures were incubated at room temperature for 20 min in the dark. Absorbance was recorded at 510 nm using an ELISA microplate reader. Trolox was employed as the reference antioxidant, and the percentage of inhibition was calculated using the following equation:
% Inhibition = [(A0 − A1)/A0] × 100.
Where A0 is the absorbance of the control, and A1 is the absorbance of the sample[34].

Cytotoxicity MTT assay = format: cell-based; details: mouse, 3T3 fibroblast cells, 48 h, Mean ± SD, n = 3, read-out: IC₅₀ cytotoxicity MTT
Method: (§1) The cytotoxic effects of the selected compounds were evaluated against the 3T3 fibroblast cell line (Sigma-Aldrich, product no. 90020107) using the MTT (3-(4,5-dimethylthiazol-2-yl)−2,5-diphenyl tetrazolium bromide) assay, following the protocol established by Mosmann[38]. A cell suspension containing 1 × 10⁵ cells per well was seeded into a 96-well plate and incubated at 37 °C with 5% CO₂ for 48 h. The cells were then treated with different concentrations of test compounds (4, 16, 63, 250, and 1000 µg/mL, dissolved in DMSO) and incubated for an additional 48 h. Following incubation, 180 µL of MTT solution (5 mg/mL in PBS) was added to each well and incubated for 4 h. The formazan crystals formed were solubilized, and absorbance was measured at 570 nm using an ELISA reader. Celecoxib was used as a positive control.

3T3 fibroblast cell line = test: Cytotoxicity MTT assay; format: cell-based
Method: as §1

[2] = molecular target: T1, α-glucosidase (EC3.2.1.20) (Saccharomyces cerevisiae, UniProt P53341); test: α-Glucosidase inhibitory activity assay; format: biochemical; details: for inhibition at 200 µg/mL: read-out: %Inhibition (200 µg/ml) alpha glucosidase
T1 construct: purchased Sigma-Aldrich
Method: The ability of the synthesized compounds to inhibit α-glucosidase was determined as per the method described by[35]. […] After incubation at 37 °C for 10 min, the reaction was initiated by adding 25 µL of substrate (4 mM) and further incubating at 37 °C for 20 min. The absorbance was measured at 405 nm.

[3] = system: STZ-induced diabetic rats; test: Effect on FBG, body weight and HbA1C over 6 weeks; format: in vivo, Sprague Dawley rats; set-up: % Reduction in FBG: concentration or dose not given beside the values; details: for BW (Day 0) / FBG (Day 0): Day 0, baseline; for % Change in BW / % Reduction in FBG: Day 0 to Day 42; for BW (Day 42) / FBG (Day 42): Day 42 of treatment; for HbA1C: end of 6-week treatment
Method: (§2) Diabetes will be induced in rats (n = 6 per group) by a single intraperitoneal injection of 60-100 mg/kg body weight (BW) streptozotocin dissolved in normal saline. After 5 days of streptozotocin injection, the tail vein blood will be collected to determine the fasting blood glucose (FBG) level. Only rats with FBG over 200 mg/dl will be considered diabetic and used for further experimentation.
Diabetic Rats (n = 6 per group) will be randomly assigned to groups of six animals each in order to examine the impact of synthetic derivatives on FBG level, BW, and HbA1C. The course of treatment will last for six weeks. At the beginning of the experiment and at weekly intervals during the first 42 days of therapy, the FBG level and BW will be measured. Rats will be denied food for 12 h while fasting, but they will have unrestricted access to water. Commercial glucose oxidase kits will be used to measure the blood glucose level. Blood 7 will be collected through cardiac puncture at the end of study period and levels of HbA1C will be determined. Metformin will be used as standard for comparison purpose.

[4] = system: STZ-induced diabetic rats; test: Physiological parameters (lipid profile); format: in vivo, Sprague Dawley rats; details: Fig. 1; for HDL / LDL / triglycerides: after treatment
Method: as §2
Animals will be sacrificed after […] of treatment and parameters including LDL, triglycerides, HDL cholesterol, and glucose will be determined by using KONELAB SYSTEM (Thermo Fisher Scientific, Finland) according to manufacturer’s guidelines.

[5] = system: STZ-induced diabetic rats; test: Fasting blood glucose and oral glucose tolerance test (OGTT); format: in vivo, Sprague Dawley rats; details: for OGTT (after 120 min): 120 min after glucose 2.0 g/kg; for Fasting blood glucose: Table 7, mean ± SD, 5 rats per group; for FBG and OGTT reduction in words: compared to diabetic control
Method: […] After 5 days of streptozotocin injection, the tail vein blood will be collected to determine the fasting blood glucose (FBG) level. Only rats with FBG over 200 mg/dl will be considered diabetic and used for further experimentation.
This assay will be performed in animals after fasting for an overnight (12 h). Then, rats will receive a bolus of glucose (2.0 g/kg body weight) followed by test molecule or control and plasma glucose will be measured from blood collected from tail vein at 0, 30, 60, 90 and 120 min after glucose administration. Plasma glucose levels will be analyzed using commercially available glucometer kits[40].

[6] = relative to positive control (diabetic rats), Fig. 2

T1 sequence (P53341 whole entry): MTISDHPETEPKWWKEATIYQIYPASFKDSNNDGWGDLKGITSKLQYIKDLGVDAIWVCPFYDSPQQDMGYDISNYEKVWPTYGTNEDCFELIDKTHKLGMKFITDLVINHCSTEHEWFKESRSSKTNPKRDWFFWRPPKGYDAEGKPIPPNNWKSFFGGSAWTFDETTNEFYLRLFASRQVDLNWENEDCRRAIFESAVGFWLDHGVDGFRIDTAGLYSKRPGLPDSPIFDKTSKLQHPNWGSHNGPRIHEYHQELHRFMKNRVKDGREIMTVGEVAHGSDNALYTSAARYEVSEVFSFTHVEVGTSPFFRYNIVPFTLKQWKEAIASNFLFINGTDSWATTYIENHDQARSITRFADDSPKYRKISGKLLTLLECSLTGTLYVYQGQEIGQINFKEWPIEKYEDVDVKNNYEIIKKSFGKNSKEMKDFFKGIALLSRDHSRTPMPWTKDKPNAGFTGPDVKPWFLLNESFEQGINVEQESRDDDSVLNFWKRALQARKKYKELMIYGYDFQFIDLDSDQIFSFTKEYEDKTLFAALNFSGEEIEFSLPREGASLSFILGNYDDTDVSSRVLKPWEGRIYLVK

Compound	DPPH free radical scavenging % inhibition ([1]; 3.12 µg/mL)	DPPH free radical scavenging % inhibition ([1]; 6.25 µg/mL)	DPPH free radical scavenging % inhibition ([1]; 12.5 µg/mL)	DPPH free radical scavenging % inhibition ([1]; 25 µg/mL)	DPPH free radical scavenging % inhibition ([1]; 50 µg/mL)	DPPH free radical scavenging % inhibition ([1]; 100 µg/mL)	DPPH free radical scavenging % inhibition ([1]; 200 µg/mL)	IC50 at 48 h (Cytotoxicity MTT assay)	Cytotoxicity category (3T3 fibroblast cell line)	inhibition at 200 µg/mL [2]	BW (Day 0) [3]	FBG (Day 0) [3]	% Reduction in FBG [3]	BW (Day 42) [3]	FBG (Day 42) [3]	HbA1C [3]	OGTT (after 120 min) [5]	Fasting blood glucose [5]	other results
O=C1O[C@H]([C@@H](O)CO)C(O)=C1O [Ascorbic Acid, reference compound]	30.2 ± 1.9%	50.6 ± 2.5%	68.9 ± 2.8%	82.3 ± 3.1%	89.6 ± 3.3%	94.2 ± 3.5%	96.8 ± 3.7%												
Cc1ccc(-c2cc(C(F)(F)F)nn2-c2ccc(S(N)(=O)=O)cc2)cc1 [Celecoxib, reference compound]								342 ± 9.7 µg/mL (≈ 897 µM)	Moderate cytotoxicity										
O=C1CN(S(=O)(=O)c2cccc(C(=O)O)c2)C(=S)N1 [FP2, 3-(4-oxo-2-sulfanylideneimidazolidine-1-sulfonyl)benzoic acid]	18.4 ± 1.3%	31.3 ± 1.9%	47.6 ± 2.4%	62.9 ± 2.8%	74.5 ± 3.1%	79.8 ± 3.2%	82.6 ± 3.3%	845 ± 12.7 µg/mL (≈ 2810 µM)	Low cytotoxicity	48.1 ± 0.94%	218.3 ± 7.5 g	280.5 ± 10.1 mg/dL	24.9%	202.8 ± 7.9 g	210.7 ± 9.6 mg/dL	7.5% and 7.5 ± 0.4%	288.0 ± 9.5 mg/dL	229.9 ± 7.6 mg/dL	IC₅₀ (concentration required to inhibit 50% of DPPH free radicals) [1]: 52.4 ± 2.5 µg/mL; % Change in BW [3]: −7.1%; lipid profile effect in words [4]: moderate improvements; FBG and OGTT reduction in words [5]: significant reductions; percentage reduction in FBG [5, 6]: 18.5%
CC(=O)c1cccc(S(=O)(=O)N2CC(=O)NC2=S)c1 [FP4, 1-(3-acetylbenzene-1-sulfonyl)−2-sulfanylideneimidazolidin-4-one]	22.1 ± 1.5%	38.2 ± 2.1%	55.7 ± 2.6%	71.6 ± 3.0%	81.2 ± 3.5%	85.9 ± 3.7%	87.4 ± 3.9%	598 ± 11.4 µg/mL (≈ 2010 µM)	Moderate cytotoxicity	51.4 ± 1.25%	215.9 ± 7.8 g	279.1 ± 9.7 mg/dL	28.9%	205.7 ± 8.6 g	198.4 ± 8.3 mg/dL	7.2 ± 0.3%	275.2 ± 9.1 mg/dL	218.4 ± 7.3 mg/dL	IC50 ([2]; Mean ± SD, read-out: IC50 alpha glucosidase (converted)): 434 µM; % Change in BW [3]: −4.7%; HDL [4]: 42.3 ± 2.5 mg/dL; LDL [4]: 54.8 ± 3.1 mg/dL; triglycerides [4]: 112.5 ± 6.2 mg/dL; percentage reduction in FBG [5, 6]: 22.6%; percentage reduction in OGTT [5, 6]: 19.4%
COc1ccc(S(=O)(=O)N2CC(=O)NC2=S)cc1C(=O)O [FP6, 2-methoxy-5-(4-oxo-2-sulfanylideneimidazolidine-1-sulfonyl)benzoic acid]	8.5 ± 0.8%	16.2 ± 1.1%	24.9 ± 1.6%	36.4 ± 2.2%	44.7 ± 2.5%	49.8 ± 2.6%	53.6 ± 2.8%	> 900 µg/mL	negligible cytotoxicity; also recorded: Non-toxic	36.4 ± 1.03%							307.5 ± 10.4 mg/dL	249.1 ± 8.5 mg/dL	alpha-glucosidase inhibition in words [2]: inactive; IC₅₀ cytotoxicity MTT (3T3 fibroblast cell line; 48 h, Mean ± SD, n = 3): 930.4 ± 10.6 µg/mL; FBG and OGTT reduction in words [5]: minor reductions
CN(C)C(=N)N=C(N)N [Metformin, reference compound]											216.2 ± 8.0 g	282.3 ± 10.5 mg/dL	49.5%	225.6 ± 9.4 g	142.5 ± 7.8 mg/dL	6.1 ± 0.3%	159.4 ± 8.3 mg/dL	119.2 ± 6.5 mg/dL	HDL [4]: 49.2 ± 2.7 mg/dL; LDL [4]: 45.1 ± 2.4 mg/dL; triglycerides [4]: 94.3 ± 5.1 mg/dL
OCCN1C[C@H](O)[C@@H](O)[C@H](O)[C@H]1CO [Miglitol, reference compound]																			inhibition at 50 µg/mL ([2]; read-out: %Inhibition alpha glucosidase): 87.9 ± 1.09%
